Data taken from patent US11230545B2, “Heterocyclic compound” (Takeda Pharmaceutical Company Limited, priority 2018, dated 2022).

Legend:
recombinant human MALT1 = biological target: T1, recombinant human MALT1 (Homo sapiens, UniProt Q9UDY8); assay: Measurement of MALT1 enzyme inhibitory activity; type: biochemical; conditions: read-out: MALT1 enzyme inhibition rate (%) at 3 μM compound
T1 construct: to form a human MALT1 (340-789aa) dimer; His tag (from pET28a, N-terminal) (N); yeast GCN4 leucine zipper (251-281aa), fusion partner for dimerisation (N); translates to GSGSGS), between GCN4 zipper and MALT1 (N); His tag (C-terminal) (C); made in house; host or cells: E. coli BL21 (DE3)
T1 sequence (Q9UDY8 340-789): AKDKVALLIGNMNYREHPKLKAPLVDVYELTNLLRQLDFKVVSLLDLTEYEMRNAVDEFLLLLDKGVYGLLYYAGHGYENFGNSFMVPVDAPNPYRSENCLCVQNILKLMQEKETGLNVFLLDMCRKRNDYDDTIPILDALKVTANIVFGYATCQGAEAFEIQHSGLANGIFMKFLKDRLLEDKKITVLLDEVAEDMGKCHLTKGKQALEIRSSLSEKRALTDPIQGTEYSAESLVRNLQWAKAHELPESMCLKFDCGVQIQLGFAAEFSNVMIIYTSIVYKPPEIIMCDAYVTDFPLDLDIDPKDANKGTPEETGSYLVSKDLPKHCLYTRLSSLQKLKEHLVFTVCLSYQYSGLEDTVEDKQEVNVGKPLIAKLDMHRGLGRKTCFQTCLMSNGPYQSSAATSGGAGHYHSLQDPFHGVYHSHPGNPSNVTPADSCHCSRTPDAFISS
T1 sequence (P03069 251-281 partner limits assumed): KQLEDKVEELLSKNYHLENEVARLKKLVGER
Protocol: On the human MALT1 gene, PCR was carried out using GC-030-[…] (pENTR221/MALT1, GeneCopoeia) as a template with primers having BamH I restriction enzyme at the N-terminal and Not I restriction enzyme at the C-terminal to form a human MALT1 (340-789aa) dimer. […] Both of the obtained fragments were treated with the restriction enzymes, and inserted between Nde I and Not I of a pET28a (Novagen) vector to yield a recombinant human MALT1 protein expression vector pET28a/His-LZ-hMALT1v1 (340-789)-His. The recombinant human MALT1 protein was prepared by transforming the expression plasmid prepared as above with ECOS Competent E. coli BL21 (DE3) (Nippon Gene Co., Ltd.). Escherichia coli obtained by transformation was inoculated into 300 mL of LB medium (1% tryptone, 0.5% yeast extract, 0.5% sodium chloride, 0.01% ampicillin) and cultured at 30° C. for 16 hours. […] Furthermore, culturing was carried out for 16 hours to induce expression of human MALT1 protein. After completion of the culture, the culture solution was centrifuged at 5,000 rpm for 10 minutes. […] This crushed liquid was centrifuged (15,300×G, 30 min, TOMY MX-301), and the obtained supernatant was passed through and adsorbed to a Ni-NTA Superflow (QIAGEN) column previously equilibrated with 50 mM Tris-HCl pH 8.0, 300 mM NaCl, 5 mM DTT and 10% glycerol, followed by elution in a buffer containing 50 mM Tris-HCl pH 8.0, 300 mM NaCl, 5 mM DTT, 10% glycerol and 250 mM imidazole. […] The prepared protein was stored at -30° C., and the protein concentration was measured with a BCA Protein Assay Kit (PIERCE) using BSA as a standard. […] Subsequently, 2 μL of a purified recombinant human MALT1 enzyme solution was added, followed by incubation for 60 minutes at room temperature. To the mixture were added 2 μL of a substrate solution (75 μM Ac-LRSR-AFC (SM Biochemicals), 20 mM HEPES (Dojin Laboratories), 10 mM KCl (Wako Pure Chemical Industries, Ltd.), 1.5 mM MgCl2 (Sigma-Aldrich), 1 mM EDTA (pH 8.0) (Nippon Gene Co., Ltd.), 0.01% Triton X-100 (Sigma-Aldrich) and 1 mM DTT (Wako Pure Chemical Industries, Ltd.), followed by incubation for 60 minutes at room temperature. The fluorescence values of excitation 400 nm and emission 485 nm immediately after substrate addition and after enzymatic reaction were measured with a plate reader Envision (PerkinElmer), and the fluorescence values increased by enzymatic reaction were used for calculation of the inhibition rate (%).

OCI-Ly3 cells = assay: Measurement of growth inhibitory activity using OCI-Ly3 cells; type: cell-based; conditions: Homo sapiens, 144 h, 3 μm compound, 6 days, read-out: Cell growth inhibition rate (%) at 3 μm compound
Protocol: OCI-Ly3 cells were seeded in a cell culture medium IMDM (Fujifilm Wako Pure Chemical Corporation) containing 20% FCS (fetal calf serum, Thermo Fisher Scientific) and monothioglycerol (Fujifilm Wako Pure Chemical Corporation) so as to be at 1.25×10^3 cells/well on a 96-well plate. Cell Titer-Glo solution (Promega) was added to cells to which the test compound had not been added, followed by stirring at room temperature for 15 minutes. Subsequently, the luminescence value was measured with Envision (PerkinElmer) on the day of seeding. Cells to which the test compound dissolved in dimethyl sulfoxide (Fujifilm Wako Pure Chemical Corporation) had been added were allowed to stand in a CO2 incubator (37° C.) for 6 days. Subsequently, the luminescence value was measured in the same manner. The inhibition rate (%) of the test compound on OCI-Ly3 cell growth was calculated by the following formula. Cell growth inhibition rate (%)=(1−(Luminescent value on day 6 of test compound treatment−Luminescent value before test compound treatment)/(Luminescent value on day 6 without compound addition−Luminescent value before compound treatment))×100

[1] = tested on: Human diffuse large-cell B-cell lymphoma cells OCI-Ly3; assay: Antitumor effect on OCI-Ly3 cell-bearing cancer model; type: in vivo; conditions: average tumor volume increase ratio; 10 mg/kg orally twice daily for 3 weeks; NOG female mice, OCI-Ly3 subcutaneous
Protocol: Human diffuse large-cell B-cell lymphoma cells OCI-Ly3 (DSMZ, German Collection of Microorganisms and Cell Cultures) were suspended in a Matrigel (BD Biosciences):HBSS (Thermo Fisher Scientific)=1:1 solution, and 1×10^7 cells were transplanted subcutaneously into the abdomen of NOG female mice (CLEA Japan, Inc.). The tumor diameter of the engrafted tumor was measured, and the tumor volume was calculated by the following formula. Tumor volume=major axis×minor axis×minor axis×(½)
Individuals with the engrafted tumor having a tumor volume of about 120 mm^3 were selected, and 6 animals per group were used in the experiment. A suspension of the test compound in 0.5% methylcellulose solution (Fujifilm Wako Pure Chemical Corporation) was orally administered at a dose of 10 mg/kg (10 mL/kg) twice daily for 3 weeks. The tumor volume was measured on the day before the start of administration and every 3 to 4 days over time, and the tumor diameter was finally measured the day after the end of administration for 21 days to calculate the tumor volume. The tumor growth of the test compound-administered group compared with the control-administered group was calculated by the following formula as an average tumor volume increase ratio T/C. T/C=((Tumor volume after the end of administration for the test compound-administered group−Tumor volume of the day before the start of administration for the test compound-administered group)/(Tumor volume after the end of administration for the control-administered group−Tumor volume of the day before the start of administration for the control-administered group))×100

With CO[C@@H](C)c1c(NC(=O)Nc2cnc(-n3nccn3)c(C(F)(F)F)c2)cnc2ccc(Cl)nc12 [Example 2, (S)—N-(6-Chloro-4-(1-methoxyethyl)-1,5-naphthyridin-3-yl)-N′-(6-(2H-1,2,3-triazol-2-yl)-5-(trifluoromethyl)pyridin-3-yl)urea] the inhibition at 3 µM (recombinant human MALT1) was 99%, the inhibition at 3 µM (OCI-Ly3 cells) was 97% and the “T/C (%)” value [1] was 2.0%.
CO[C@@H](C)c1c(NC(=O)Nc2cnc(-n3nccn3)c(Cl)c2)cnn2cc(C)nc12 [Example 4, (S)—N-(5-Chloro-6-(2H-1,2,3-triazol-2-yl)pyridin-3-yl)-N′-(8-(1-methoxyethyl)-2-methylimidazo[1,2-b]pyridazin-7-yl)urea] was tested, and the inhibition at 3 µM (recombinant human MALT1) was 111%, the inhibition at 3 µM (OCI-Ly3 cells) was 97% and the “T/C (%)” value [1] was 43.3%.
For CO[C@@H](C)c1c(NC(=O)Nc2cnc(-n3nccn3)c(C(F)(F)F)c2)cnc2ccc(C)nc12 [Example 3, (S)—N-(4-(1-Methoxyethyl)-6-methyl-1,5-naphthyridin-3-yl)-N′-(6-(2H-1,2,3-triazol-2-yl)-5-(trifluoromethyl)pyridin-3-yl)urea], the inhibition at 3 µM (recombinant human MALT1) was 101%, the inhibition at 3 µM (OCI-Ly3 cells) was 99% and the “T/C (%)” value [1] was 38.7%.
In the case of CO[C@@H](C)c1c(NC(=O)Nc2cnc(OC(F)F)c(Cl)c2)cnn2cc(C)nc12 [Example 1, (S)—N-(5-Chloro-6-(difluoromethoxy)pyridin-3-yl)-N′-(8-(1-methoxyethyl)-2-methylimidazo[1,2-b]pyridazin-7-yl)urea], the inhibition at 3 µM (recombinant human MALT1) is reported as 104%, the inhibition at 3 µM (OCI-Ly3 cells) is reported as 96% and the “T/C (%)” value [1] is reported as 13.4%.
